Reference: patent publication US12054469B2, “Benzothiophene-based selective estrogen receptor downregulator compounds” (The Board of Trustees of the University of Illinois, priority 2015, dated 2024)

What was measured:
estrogen receptor = estrogen receptor (Homo sapiens (Human), UniProt P03372); assay: Western blot analysis of estrogen receptor downregulation; format: cell-based; conditions: 10 nM
Experimental: Whole-cell extracts of cultured cells were prepared in lysis buffer (200 mmol/L Tris, 1% Triton X-100, 5 mmol/L EDTA) with protease and phosphatase inhibitor cocktails (1:50, both from Sigma-Aldrich) after scraping from the culture plates. Protein concentration was measured using the Bradford method (Bio-Rad). Proteins were separated under denaturing conditions and blotted onto nitrocellulose membrane (Bio-Rad) using a wet transfer system (Bio-Rad). Images of blots were acquired on a Bio-Rad ChemiDoc System following incubation with SuperSignal West Dura luminol solution (Thermo Fisher Scientific).

MCF-7:WS8 cells = assay: Cell viability of MCF7:WS8, DNA content assay; format: cell-based, human
ERα = ERα (Homo sapiens (Human), UniProt P03372); assay: In-cell western (ICW) ER downregulation/degradation in MCF-7:WS8 cells; format: cell-based; conditions: Table 2; read-out: IC50 of ER downregulation from in-cell western blot experiments
ERα, sequence (P03372 whole entry): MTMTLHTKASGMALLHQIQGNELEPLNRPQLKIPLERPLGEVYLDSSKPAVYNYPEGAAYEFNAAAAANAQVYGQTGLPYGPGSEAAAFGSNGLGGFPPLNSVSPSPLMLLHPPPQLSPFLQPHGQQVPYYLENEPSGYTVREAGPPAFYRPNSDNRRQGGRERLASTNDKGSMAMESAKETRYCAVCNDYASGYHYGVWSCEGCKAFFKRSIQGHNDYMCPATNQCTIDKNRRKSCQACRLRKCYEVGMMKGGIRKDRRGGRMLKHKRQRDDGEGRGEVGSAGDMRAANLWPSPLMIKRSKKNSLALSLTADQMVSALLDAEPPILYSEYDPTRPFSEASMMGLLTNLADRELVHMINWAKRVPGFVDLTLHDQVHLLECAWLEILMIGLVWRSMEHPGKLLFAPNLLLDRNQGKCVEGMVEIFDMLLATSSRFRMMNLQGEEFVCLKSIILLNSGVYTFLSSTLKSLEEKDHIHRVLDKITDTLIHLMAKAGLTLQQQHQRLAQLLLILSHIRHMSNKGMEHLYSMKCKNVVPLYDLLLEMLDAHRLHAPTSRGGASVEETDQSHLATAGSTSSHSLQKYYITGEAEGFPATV
MCF-7:TAM1 tumors = assay: MCF-7:TAM1 xenograft model of endocrine-resistant ER+ breast cancer; format: in vivo, mice; conditions: 100 mg/kg, oral gavage daily

estrogen receptor, sequence (P03372 whole entry): as above

SMILES	Estrogen receptor downregulation (western blot) (estrogen receptor)	MCF-7WS8 IC50 (MCF-7:WS8 cells)	further results
Cc1cc(F)ccc1C(=O)c1sc2cc(O)ccc2c1Oc1ccc(/C=C/C(=O)O)cc1 [Compound 1, (E)-3-(4-((2-(4-Fluoro-2-methylbenzoyl)-6-hydroxybenzo[b]thiophen-3-yl)oxy)phenyl)acrylic acid]	downregulate the estrogen receptor	–	–
O=C(O)/C=C/c1ccc(Oc2c(C(=O)c3ccc(O)cc3)sc3cc(O)ccc23)cc1 [Compound 2, (E)-3-(4-((6-Hydroxy-2-(4-hydroxybenzoyl)benzo[b]thiophen-3-yl)oxy)phenyl) acrylic acid]	–	No Inhiibition	–
CCc1ccccc1C(=O)c1sc2cc(O)ccc2c1Oc1ccc(/C=C/C(=O)O)cc1 [Compound 3, (E)-3-(4-((2-(2-Ethylbenzoyl)-6-hydroxybenzo[b]thiophen-3-yl)oxy)phenyl) acrylic acid]	downregulate the estrogen receptor	–	–
Cc1ccccc1C(=O)c1sc2cc(O)ccc2c1Oc1ccc(/C=C/C(=O)O)cc1 [Compound 5, (E)-3-(4-((6-Hydroxy-2-(2-methylbenzoyl)benzo[b]thiophen-3-yl)oxy)phenyl) acrylic acid]	downregulate the estrogen receptor	–	–
Cc1ccc(F)cc1C(=O)c1sc2cc(O)ccc2c1Oc1ccc(/C=C/C(=O)O)cc1 [Compound 6]	downregulate the estrogen receptor	–	–
Cc1ccsc1C(=O)c1sc2cc(O)ccc2c1Oc1ccc(/C=C/C(=O)O)cc1 [Compound 7, (E)-3-(4-((6-Hydroxy-2-(3-methylthiophene-2-carbonyl)benzo[b]thiophen-3-yl)oxy)phenyl) acrylic acid]	downregulate the estrogen receptor	–	IC50 (ERα): 4.6 nM
Cc1cc(F)ccc1C(=O)c1sc2cc(O)ccc2c1Oc1ccc(NC(=O)C(=O)O)cc1 [Compound 18, 2-((4-((2-(4-Fluoro-2-methylbenzoyl)-6-hydroxybenzo[b]thiophen-3-yl)oxy)phenyl)amino)-2-oxoacetic acid]	–	No Inhibition	–
Cc1ccc(C(=O)c2sc3cc(O)ccc3c2Oc2ccc(NC(=O)C(=O)O)cc2)c(C)c1 [Compound 19, 2-((4-((2-(2,4-Dimethylbenzoyl)-6-hydroxybenzo[b]thiophen-3-yl)oxy)phenyl)amino)-2-oxoacetic acid]	–	No inhibition	–
CC/C(=C(\c1ccccc1)c1ccc(OCCN(C)C)cc1)c1ccccc1 [Tamoxifen, tamoxifen]	–	–	Effect on tumor (MCF-7:TAM1 tumors): entirely without effect
